Experimental data from paper PMC11737842, “Development of a high‐throughput dual‐stream liquid chromatography–tandem mass spectrometry method to screen for inhibitors of glutamate carboxypeptidase II” (Rapid Communications in Mass Spectrometry, 2024).
Residues, ends and D or L forms follow the SMILES beside them.

What was measured:
[1] = biological target: T1, Glutamate carboxypeptidase II (GCPII) (Homo sapiens, UniProt Q04609); experiment: LC/MS/MS enzymatic assay of Glu released from NAAG by purchased GCPII, 11-point IC50; assay type: biochemical
T1 construct: gene FOLH1
T1 sequence (Q04609 whole entry): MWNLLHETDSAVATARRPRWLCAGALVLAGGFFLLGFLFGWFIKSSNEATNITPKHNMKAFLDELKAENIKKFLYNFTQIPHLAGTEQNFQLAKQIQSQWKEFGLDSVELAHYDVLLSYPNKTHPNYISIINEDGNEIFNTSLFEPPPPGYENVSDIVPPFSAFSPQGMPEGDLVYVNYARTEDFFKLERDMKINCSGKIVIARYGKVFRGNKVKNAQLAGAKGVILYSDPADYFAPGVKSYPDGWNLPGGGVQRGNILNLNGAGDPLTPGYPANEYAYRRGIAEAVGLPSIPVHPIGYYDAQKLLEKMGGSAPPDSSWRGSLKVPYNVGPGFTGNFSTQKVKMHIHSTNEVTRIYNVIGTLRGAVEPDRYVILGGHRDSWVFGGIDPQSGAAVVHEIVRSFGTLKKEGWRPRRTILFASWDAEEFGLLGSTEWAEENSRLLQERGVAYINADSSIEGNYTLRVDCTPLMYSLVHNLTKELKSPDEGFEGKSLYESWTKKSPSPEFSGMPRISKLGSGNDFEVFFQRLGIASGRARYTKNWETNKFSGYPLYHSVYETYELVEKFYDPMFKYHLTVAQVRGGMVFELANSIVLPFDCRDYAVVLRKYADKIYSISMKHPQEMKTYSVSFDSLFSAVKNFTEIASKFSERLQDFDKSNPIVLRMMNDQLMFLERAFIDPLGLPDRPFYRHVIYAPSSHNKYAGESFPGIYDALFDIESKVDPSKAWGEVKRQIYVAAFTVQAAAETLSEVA

[2] = biological target: T1, Glutamate carboxypeptidase II (GCPII); experiment: LC/MS/MS measurement of Glu from GCPII cleavage of ([…]5 […]-labelled) NAAG; assay type: biochemical

SMILES	IC50 [1] [µM]	LC/MS/MS measurement of Glu from GCPII cleavage of (13C5 15N-labelled) NAAG [2]
N[C@@H](Cn1oc(=O)[nH]c1=O)C(=O)O [quisqualic acid]	1.59	–
CC(=O)N[C@@H](CC(=O)O)C(=O)N[C@@H](CCC(=O)O)C(=O)O [NAAG] (Ac-Asp-Glu-OH)	–	LC/MS/MS) method to directly measure Glu resulting from in vitro GCPII cleavage of NAAG
